Broadly, the IC50 is the point on the concentration scale where inhibition reaches its midpoint. A low value points to greater potency.

Among the data in paper PMC10180211, “Stability Analysis of the Asiatic Acid-COX-2 Complex Using 100 ns Molecular Dynamic Simulations and Its Selectivity against COX-2 as a Potential Anti-Inflammatory Candidate” (Molecules, 2023) are IC50 values, retold here.

This assay deals with T1, cyclooxygenase-2 (COX-2) (Ovis aries, UniProt P79208).
T1 construct: gene PTGS2
T1 sequence (P79208 17-603): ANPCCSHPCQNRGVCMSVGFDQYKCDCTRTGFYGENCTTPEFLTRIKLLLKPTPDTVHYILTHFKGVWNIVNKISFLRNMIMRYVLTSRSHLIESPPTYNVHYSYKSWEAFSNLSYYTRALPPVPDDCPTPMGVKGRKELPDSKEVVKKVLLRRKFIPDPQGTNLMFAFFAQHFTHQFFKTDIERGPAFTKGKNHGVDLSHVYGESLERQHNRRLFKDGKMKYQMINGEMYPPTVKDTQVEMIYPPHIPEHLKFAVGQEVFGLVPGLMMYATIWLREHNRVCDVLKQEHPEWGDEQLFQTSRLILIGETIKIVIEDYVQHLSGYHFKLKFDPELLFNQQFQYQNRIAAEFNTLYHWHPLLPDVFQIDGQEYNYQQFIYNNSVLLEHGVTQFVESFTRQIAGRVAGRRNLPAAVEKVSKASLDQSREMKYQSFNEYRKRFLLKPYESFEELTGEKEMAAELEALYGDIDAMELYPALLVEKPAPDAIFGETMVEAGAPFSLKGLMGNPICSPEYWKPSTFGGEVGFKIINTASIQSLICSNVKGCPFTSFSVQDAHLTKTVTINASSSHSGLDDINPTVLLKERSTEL
The assay can be described thus: colorimetric COX inhibitor screening assay (kit […]; TMPD oxidation at […] nm) with ovine COX-2. In kind it is biochemical.

Turning to `C[C@H]1[C@H](C)CC[C@]2(C(=O)O)CC[C@]3(C)C(=CC[C@@H]4[C@@]5(C)C[C@@H](O)[C@H](O)[C@@](C)(CO)[C@@H]5CC[C@]43C)[C@H]12` [asiatic acid, 2,3,23-trihydroxy-urs-12-ene-28-oic-acid], the IC50 is 120 µM.
